These results are taken from US20250059179A1, “Heterocyclic Compounds and Methods of Use” (AMGEN INC., priority 2021, published 2025).

Assay [1] has as its system Phosphorylation of ERK1/2 in A-427 cells. Put plainly: Phospho-ERK1/2 MSD Assay. In kind it is cell-based. The settings on record: Homo sapiens, A-427, 2 h, 2 h compound treatment, read-out: pERK (A427 cells) IC50. In a few lines: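 ERK1/2 phosphorylation measured by Meso Scale whole-cell lysate assay after A-427 cells were exposed to a titration of compound for 2 h at 37 °C.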

Assay [2] has as its target His-tagged KRAS G12D protein (Homo sapiens, UniProt P01116, G12D). Put plainly: KRAS G12D TR-FRET Assay.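 Also: europium anti-His antibody paired with streptavidin-d2 as FRET partners, initial 30 min incubation, then peptide 1 h and detection reagents 1 h, all at room temperature.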 It counts as binding. As to conditions: biotinylated KRPep-2d substrate, 10 μM GDP.
Assay [3] deals with GDP-bound KRAS protein (aa 1-169), containing both G12D and C118A amino acid substitutions (Homo sapiens, UniProt P01116, C118A/G12D). Put plainly: KRAS G12D Coupled Nucleotide Exchange Assay.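 Also: IC50 obtained by fitting the AlphaScreen signal with a four-parameter logistic curve.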 It counts as biochemical. The settings on record: 2 h compound pre-incubation; SOS-mediated nucleotide exchange, cRAF AlphaScreen readout. On the technique in general: Bead proximity is the source of the signal in Alpha formats.
Chain of GDP-bound KRAS protein (aa 1-169), containing both G12D and C118A amino acid substitutions (P01116 1-169 isoform P01116-2 G12D/C118A): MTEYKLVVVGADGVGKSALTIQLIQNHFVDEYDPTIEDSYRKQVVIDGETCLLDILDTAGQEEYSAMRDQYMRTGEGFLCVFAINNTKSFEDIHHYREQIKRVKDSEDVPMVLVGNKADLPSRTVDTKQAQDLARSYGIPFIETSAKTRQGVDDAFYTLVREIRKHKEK

Chain of His-tagged KRAS G12D protein (P01116 1-188 isoform P01116-2 G12D): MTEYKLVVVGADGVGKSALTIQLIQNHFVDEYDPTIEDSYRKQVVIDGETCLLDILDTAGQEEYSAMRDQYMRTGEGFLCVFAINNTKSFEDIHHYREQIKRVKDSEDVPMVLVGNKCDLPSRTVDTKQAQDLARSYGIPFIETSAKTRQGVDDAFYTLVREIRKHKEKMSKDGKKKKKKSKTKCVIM

The term IC50 denotes the midpoint of a concentration-inhibition curve. Consider `Nc1nc2c(-c3c(Cl)cc4c(N5C[C@@H]6CC[C@H]5CN6)nc(OC[C@@]56CCCN5C[C@H](F)C6)nc4c3F)ccc(F)c2s1` [Example 38, 4-(4-((15,4S)-2,5-diazabicyclo[2.2.2]octan-2-yl)-6-chloro-8-fluoro-2-(((2R,7aS)-2-fluorotetrahydro-1H-pyrrolizin-7a(5H)-yl)methoxy)quinazolin-7-yl)-7-fluorobenzo[d] thiazol-2-amine], for which the IC50 was found to be 1090 nM in assay [1] and 6 nM in assay [2]. The “Avg 2 h Coupled Exchange IC50” value in assay [3] worked out at 13 nM.
On to `Nc1nc2c(-c3cc4nc(OC[C@@]56CCCN5C[C@H](F)C6)nc(N5C[C@H]6CC[C@@H](C5)N6)c4cc3F)ccc(F)c2s1` [Example 132, 4-(4-((1R,5S)-3,8-diazabicyclo[3.2.1]octan-3-yl)-6-fluoro-2-(((2R,7aS)-2-fluorotetrahydro-1H-pyrrolizin-7a(5H)-yl)methoxy)quinazolin-7-yl)-7-fluorobenzo[d]thiazol-2-amine], for which the IC50 in assay [1] was determined as 440 nM; in assay [2], 3 nM. In assay [3], the “Avg 2 h Coupled Exchange IC50” value was determined as 4 nM.
Turning to `Nc1nc2c(-c3c(Cl)cc4c(N5CC6CNCC5C6)nc(OC[C@@]56CCCN5C[C@H](F)C6)nc4c3F)ccc(F)c2s1` (single isomer, unassigned) [Example 29], the IC50 in assay [1] worked out at 4730 nM; in assay [2], 107 nM. The “Avg 2 h Coupled Exchange IC50” value in assay [3] is 13 nM.
In the same order, the values of `Nc1nc2c(-c3c(Cl)cc4c(N5CCCNC(=O)C5)nc(OC[C@@]56CCCN5C[C@H](F)C6)nc4c3F)ccc(F)c2s1` [Example 4, 4-(7-(2-amino-7-fluorobenzo[d]thiazol-4-yl)-6-chloro-8-fluoro-2-(((2R,7aS)-2-fluorotetrahydro-1H-pyrrolizin-7a(5H)-yl)methoxy)quinazolin-4-yl)-1,4-diazepan-2-one] are 4900 nM, 10 nM and 5 nM.
Taken in the same sequence, the figures for `Nc1nc2c(-c3c(Cl)cc4c(N5CC6CCC(C5)NC6)nc(OC[C@@]56CCCN5C[C@H](F)C6)nc4c3F)ccc(F)c2s1` (stereo partly drawn) [Example 31, 4-(4-(3,6-diazabicyclo[3.2.2]nonan-3-yl)-6-chloro-8-fluoro-2-(((2R,7aS)-2-fluorotetrahydro-1H-pyrrolizin-7a(5H)-yl)methoxy)quinazolin-7-yl)-7-fluorobenzo[d] thiazol-2-amine] were 1020 nM, 6 nM and 5 nM.
Taken in the same sequence, the figures for `CN1C[C@H](F)C[C@H]1COc1nc(N2[C@@H]3CC[C@H]2CNC3)c2cc(Cl)c(-c3ccc(F)c4sc(N)nc34)c(F)c2n1` [Example 3, 4-(4-((1R,5S)-3,8-diazabicyclo[3.2.1]octan-8-yl)-6-chloro-8-fluoro-2-(((2S,4R)-4-fluoro-1-methylpyrrolidin-2-yl)methoxy)quinazolin-7-yl)-7-fluorobenzo[d] thiazol-2-amine] were 194 nM, 6 nM and 5 nM.
`CN1CCC[C@H]1COc1nc(N2CCNC3CC32)c2cc(Cl)c(-c3cccc4sc(N)nc34)c(F)c2n1` (stereo partly drawn) [Example 20, 4-(4-(2,5-diazabicyclo[4.1.0]heptan-2-yl)-6-chloro-8-fluoro-2-(((S)-1-methylpyrrolidin-2-yl)methoxy)quinazolin-7-yl)benzo[d]thiazol-2-amine]: the half-inhibitory concentration (IC50) amounted to 2510 nM in assay [1] and 168 nM in assay [2]. Moreover, the “Avg 2 h Coupled Exchange IC50” value in assay [3] was found to be 63 nM.
Taken in the same sequence, the figures for `CN1CCC[C@H]1COc1nc(C2=CCNC2)c2cc(Cl)c(-c3cccc4sc(N)nc34)c(F)c2n1` [Example 148, 4-(6-chloro-4-(2,5-dihydro-1H-pyrrol-3-yl)-8-fluoro-2-(((S)-1-methylpyrrolidin-2-yl)methoxy)quinazolin-7-yl)benzo[d]thiazol-2-amine] were 3410 nM, 56 nM and 74 nM.
As to `CN1CCC[C@H]1COc1nc(N2CCCNCCC2)c2cc(Cl)c(-c3cccc4sc(N)nc34)c(F)c2n1` [Example 35, 4-(6-chloro-4-(1,5-diazocan-1-yl)-8-fluoro-2-(((S)-1-methylpyrrolidin-2-yl)methoxy)quinazolin-7-yl)benzo[d]thiazol-2-amine], the results for the IC50 in assay [1] and in assay [2] were greater than 10000 nM and 336 nM, respectively. Besides, in assay [3], the “Avg 2 h Coupled Exchange IC50” value amounted to 65 nM.
In the same order, the values of `CN1C[C@H](F)C[C@H]1COc1nc(N2C[C@H]3C[C@@H](C2)N3)c2cc(Cl)c(-c3ccc(F)c4sc(N)nc34)c(F)c2n1` [Example 7, 4-(4-((1R,5S)-3,6-diazabicyclo[3.1.1]heptan-3-yl)-6-chloro-8-fluoro-2-(((2S,4R)-4-fluoro-1-methylpyrrolidin-2-yl)methoxy)quinazolin-7-yl)-7-fluorobenzo[d] thiazol-2-amine] are 531 nM, 12 nM and 6 nM.
In the same order, the values of `Nc1nc2c(-c3c(Cl)cc4c(N5[C@@H]6CC[C@H]5CNC6)nc(OC[C@@]56CCCN5C[C@H](F)C6)nc4c3F)ccc(F)c2s1` [Example 2, 4-(4-((1R,5S)-3,8-diazabicyclo[3.2.1]octan-8-yl)-6-chloro-8-fluoro-2-(((2R,7aS)-2-fluorotetrahydro-1H-pyrrolizin-7a(5H)-yl)methoxy)quinazolin-7-yl)-7-fluorobenzo[d] thiazol-2-amine] are 23 nM, 5 nM and 4 nM.
For the compound `CN1CCC[C@H]1COc1nc(N2C[C@@H]3CC[C@H]2CN3)c2cc(Cl)c(-c3cccc4sc(N)nc34)c(F)c2n1` [Example 15, 4-(4-((15,4S)-2,5-diazabicyclo[2.2.2]octan-2-yl)-6-chloro-8-fluoro-2-(((S)-1-methylpyrrolidin-2-yl)methoxy)quinazolin-7-yl)benzo[d]thiazol-2-amine], the IC50 is 2300 nM in assay [1] and 21 nM in assay [2]. Further, the “Avg 2 h Coupled Exchange IC50” value in assay [3] was determined as 14 nM.
In the case of `C=Cc1cc2c(N3[C@@H]4CC[C@H]3CNC4)nc(OC[C@@]34CCCN3C[C@H](F)C4)nc2c(F)c1-c1ccc(F)c2sc(N)nc12` [Example 151, 4-(4-((1R,5S)-3,8-diazabicyclo[3.2.1]octan-8-yl)-8-fluoro-2-(((2R,7aS)-2-fluorotetrahydro-1H-pyrrolizin-7a(5H)-yl)methoxy)-6-vinylquinazolin-7-yl)-7-fluorobenzo[d]thiazol-2-amine], the half-maximal inhibitory concentration (IC50) in assay [1] stood at 33 nM; in assay [2], 5 nM. The “Avg 2 h Coupled Exchange IC50” value in assay [3] is 5 nM.
As for `Nc1nc2c(-c3ccc4c(N5C[C@H]6CC[C@@H](C5)N6)nc(OC[C@@]56CCCN5C[C@H](F)C6)nc4c3)ccc(F)c2s1` [Example 133, 4-(4-((1R,5S)-3,8-diazabicyclo[3.2.1]octan-3-yl)-2-(((2R,7aS)-2-fluorotetrahydro-1H-pyrrolizin-7a(5H)-yl)methoxy)quinazolin-7-yl)-7-fluorobenzo[d]thiazol-2-amine], the values for the concentration for half-maximal inhibition (IC50) in assay [1] and in assay [2] were 4440 nM and 74 nM, respectively. Besides, in assay [3], the “Avg 2 h Coupled Exchange IC50” value was 6 nM.
Taken in the same sequence, the figures for `Nc1nc2c(-c3c(Cl)cc4c(N5[C@@H]6CNC[C@H]5COC6)nc(OC[C@@]56CCCN5C[C@H](F)C6)nc4c3F)ccc(F)c2s1` [Example 122, 4-(4-((1R,5S)-3-Oxa-7,9-diazabicyclo[3.3.1]nonan-9-yl)-6-chloro-8-fluoro-2-(((2R,7aS)-2-fluorotetrahydro-1H-pyrrolizin-7a(5H)-yl)methoxy)quinazolin-7-yl)-7-fluorobenzo[d]thiazol-2-amine] were 167 nM, 4 nM and 3 nM.
